Measurements: patent US9334246B2, “Substituted triazines for malaria treatment and chemoprophylaxis” (The United States of America, as represented by the …, priority 2013, dated 2016)
In brackets after ≈: the same amount, converted by molar mass.

What was measured:
P. falciparum D6 = experiment: Malaria SYBR Green Fluorescence Assay, D6 strain; format: cell-based, Plasmodium falciparum
P. falciparum C235 = experiment: Malaria SYBR Green Fluorescence Assay, C235 strain; format: cell-based, Plasmodium falciparum
P. falciparum W2 = experiment: Malaria SYBR Green Fluorescence Assay, W2 strain; format: cell-based, Plasmodium falciparum
[1] = molecular target: hERG potassium ion channel (Homo sapiens, UniProt Q12809); experiment: hERG patch clamp assay (% inhibition at 10 μM); conditions: for hERG (% inhibition): 10 μM
P. berghei = experiment: Thompson Test, in vivo mouse malaria assay; parameters: species or system mice (ICR strain)
[2] = % inhibition at 10 μM, patch clamp
[3] = Plasmodium falciparum, SYBR Green Assay

Sequence of hERG potassium ion channel (Q12809 whole entry): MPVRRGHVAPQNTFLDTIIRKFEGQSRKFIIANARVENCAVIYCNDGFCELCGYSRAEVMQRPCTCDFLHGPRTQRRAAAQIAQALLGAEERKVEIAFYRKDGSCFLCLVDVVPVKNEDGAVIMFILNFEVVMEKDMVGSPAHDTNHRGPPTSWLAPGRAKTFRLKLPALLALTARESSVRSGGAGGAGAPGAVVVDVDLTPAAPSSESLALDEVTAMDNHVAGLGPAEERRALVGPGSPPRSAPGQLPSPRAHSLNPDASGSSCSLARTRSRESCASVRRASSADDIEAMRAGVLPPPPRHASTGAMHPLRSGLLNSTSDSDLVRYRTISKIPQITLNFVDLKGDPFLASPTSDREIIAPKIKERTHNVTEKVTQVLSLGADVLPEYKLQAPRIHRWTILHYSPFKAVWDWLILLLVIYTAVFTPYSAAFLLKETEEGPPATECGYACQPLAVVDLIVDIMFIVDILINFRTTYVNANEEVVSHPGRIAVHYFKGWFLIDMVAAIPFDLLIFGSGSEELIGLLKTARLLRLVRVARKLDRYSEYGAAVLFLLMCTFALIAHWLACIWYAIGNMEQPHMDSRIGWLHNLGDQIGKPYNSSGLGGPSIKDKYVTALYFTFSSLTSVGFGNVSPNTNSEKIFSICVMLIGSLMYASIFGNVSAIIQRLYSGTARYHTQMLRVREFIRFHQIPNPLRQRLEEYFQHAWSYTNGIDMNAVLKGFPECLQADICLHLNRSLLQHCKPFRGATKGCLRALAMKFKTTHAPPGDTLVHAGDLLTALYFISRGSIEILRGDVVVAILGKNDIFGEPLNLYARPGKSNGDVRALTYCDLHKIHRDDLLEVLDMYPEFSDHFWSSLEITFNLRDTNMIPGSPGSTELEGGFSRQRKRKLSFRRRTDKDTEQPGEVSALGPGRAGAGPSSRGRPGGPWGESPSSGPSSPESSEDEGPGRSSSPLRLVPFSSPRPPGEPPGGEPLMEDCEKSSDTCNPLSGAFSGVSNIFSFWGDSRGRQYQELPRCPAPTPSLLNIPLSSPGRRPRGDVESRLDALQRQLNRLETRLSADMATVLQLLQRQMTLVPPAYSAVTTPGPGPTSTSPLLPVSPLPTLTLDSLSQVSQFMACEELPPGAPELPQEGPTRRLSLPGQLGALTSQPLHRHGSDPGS

CN1CCCC1CCNc1nc(-c2ccc(F)cc2)nc(C(Cl)(Cl)Cl)n1 (stereo not drawn) [Cmpd 382]
D6 (SYBR Green Assay IC50) (P. falciparum D6): 0.017 µg/mL | C235 (SYBR Green Assay IC50) (P. falciparum C235): 0.036 µg/mL | W2 (SYBR Green Assay IC50) (P. falciparum W2): 0.02 µg/mL | hERG (% inhibition) [1]: 105%

CCN1CCCC(Nc2nc(-c3ccc(F)cc3)nc(C(Cl)(Cl)Cl)n2)C1 (stereo not drawn) [Cmpd 387]
D6 (SYBR Green Assay IC50) (P. falciparum D6): 0.004 µg/mL | C235 (SYBR Green Assay IC50) (P. falciparum C235): 0.013 µg/mL | W2 (SYBR Green Assay IC50) (P. falciparum W2): 0.007 µg/mL | hERG (% inhibition) [1]: 108%

Clc1ccc(-c2nc(NCCCCCN3CCCC3)nc(C(Cl)(Cl)Cl)n2)cc1 [Cmpd 561]
D6 (SYBR Green Assay IC50) (P. falciparum D6): 0.03967 µg/mL | C235 (SYBR Green Assay IC50) (P. falciparum C235): 0.03869 µg/mL | W2 (SYBR Green Assay IC50) (P. falciparum W2): 0.02784 µg/mL | hERG (% inhibition) [1]: 63%

ClC(Cl)(Cl)c1ccc(-c2nc(NCCN3CCCC3)nc(C(Cl)(Cl)Cl)n2)cc1 [Compound 57]
D6 (P. falciparum D6; SYBR Green Assay): 10 ng/mL | C235 (P. falciparum C235; SYBR Green Assay): 22 ng/mL | In vivo Results Thompson Assay (n/N Cures or Suppressive) (P. berghei; (80 × 3): 80 mg/kg for 3 days): Suppressive | In vivo Results Thompson Assay (n/N Cures or Suppressive) (P. berghei; (160 × 3): 160 mg/kg for 3 days): 5/5 | W2 (P. falciparum W2; SYBR Green Assay): 6 ng/mL | hERG [1, 2]: 25%

CN1CCN(c2nc(-c3ccc([S+](C)[O-])cc3)nc(C(Cl)(Cl)Cl)n2)CC1 (stereo not drawn) [Compound 72]
D6 (P. falciparum D6; SYBR Green Assay): 33 ng/mL | C235 (P. falciparum C235; SYBR Green Assay): 27 ng/mL | In vivo Results Thompson Assay (n/N Cures or Suppressive) (P. berghei; (80 × 3): 80 mg/kg for 3 days): (80 × 3) Suppressive | W2 (P. falciparum W2; SYBR Green Assay): 33 ng/mL | hERG [1, 2]: 41%

CCN1CCCC(Nc2nc(-c3ccc(C(C)(C)C)cc3)nc(C(Cl)(Cl)Cl)n2)C1 (stereo not drawn) [Compound 79]
D6 (P. falciparum D6; SYBR Green Assay): 26 ng/mL | C235 (P. falciparum C235; SYBR Green Assay): 36 ng/mL | In vivo Results Thompson Assay (n/N Cures or Suppressive) (P. berghei; (80 × 3): 80 mg/kg for 3 days): (80 × 3) Suppressive | W2 (P. falciparum W2; SYBR Green Assay): 25 ng/mL | hERG [1, 2]: 51%

CS(=O)(=O)c1ccc(-c2nc(N3CCCNCC3)nc(C(Cl)(Cl)Cl)n2)cc1 [Compound 96]
D6 (P. falciparum D6; SYBR Green Assay): 70 ng/mL | C235 (P. falciparum C235; SYBR Green Assay): 96 ng/mL | In vivo Results Thompson Assay (n/N Cures or Suppressive) (P. berghei; (80 × 3): 80 mg/kg for 3 days): (80 × 3) Suppressive | W2 (P. falciparum W2; SYBR Green Assay): 51 ng/mL | hERG [1, 2]: 65%

ClC(Cl)(Cl)c1nc(Nc2ccncc2)nc(-c2ccc3ccccc3c2)n1 [Compound 235]
D6 (P. falciparum D6; SYBR Green Assay): 14 ng/mL | C235 (P. falciparum C235; SYBR Green Assay): 10 ng/mL | In vivo Results Thompson Assay (n/N Cures or Suppressive) (P. berghei; (80 × 3): 80 mg/kg for 3 days): (80 × 3) Suppressive | W2 (P. falciparum W2; SYBR Green Assay): 8 ng/mL

NC1(CNc2nc(-c3ccccc3)nc(C(Cl)(Cl)Cl)n2)CCOCC1 [Compound 313]
D6 (P. falciparum D6; SYBR Green Assay): 7 ng/mL | C235 (P. falciparum C235; SYBR Green Assay): 14 ng/mL | In vivo Results Thompson Assay (n/N Cures or Suppressive) (P. berghei; (80 × 3): 80 mg/kg for 3 days): (80 × 3) 1/5 Cures | W2 (P. falciparum W2; SYBR Green Assay): 2 ng/mL

CC1(C)CC(Nc2nc(-c3ccccc3)nc(C(Cl)(Cl)Cl)n2)CC(C)(C)N1 [Compound 320]
D6 (P. falciparum D6; SYBR Green Assay): 11 ng/mL | C235 (P. falciparum C235; SYBR Green Assay): 20 ng/mL | In vivo Results Thompson Assay (n/N Cures or Suppressive) (P. berghei; (40 × 3): 40 mg/kg for 3 days): 1/5 | In vivo Results Thompson Assay (n/N Cures or Suppressive) (P. berghei; (80 × 3): 80 mg/kg for 3 days): 4/4 | W2 (P. falciparum W2; SYBR Green Assay): 2 ng/mL

CC(C)CN1CCC(Nc2nc(-c3ccc(C(C)(C)C)cc3)nc(C(Cl)(Cl)Cl)n2)CC1 [Compound 694, CC(C)CN1CCC(CC1)NC1═NC(═NC(═N1)C(Cl)(Cl)Cl)C1═CC═C(C═C1)C(C)(C)C]
D6 (P. falciparum D6; SYBR Green Assay): 24 ng/mL | C235 (P. falciparum C235; SYBR Green Assay): 37 ng/mL | In vivo Results Thompson Assay (n/N Cures or Suppressive) (P. berghei; (80 × 3): 80 mg/kg for 3 days): (80 × 3) Suppressive | W2 (P. falciparum W2; SYBR Green Assay): 23 ng/mL

CC(C)(C)OC(=O)N1CC2CC1CN2c1nc(-c2ccc(S(C)(=O)=O)cc2)nc(C(Cl)(Cl)Cl)n1 (stereo not drawn) [Compound 715, CC(C)(C)OC(═O)N1CC2CC1CN2c3nc(nc(n3)C(Cl)(Cl)Cl)c4ccc(cc4)S(═O)(═O)C]
D6 (P. falciparum D6; SYBR Green Assay): 126 ng/mL | C235 (P. falciparum C235; SYBR Green Assay): 185 ng/mL | W2 (P. falciparum W2; SYBR Green Assay): 63 ng/mL | hERG ([1]; hERG activity as % inhibition): 19%

CC(CNc1nc(-c2ccc(Cl)c(Cl)c2)nc(C(Cl)(Cl)Cl)n1)N(C)C (stereo not drawn) [Example 1, N^1-(4-(3,4-dichlorophenyl)-6-(trichloromethyl)-1,3,5-triazin-2-yl)-N^2,N^2-dimethylpropane-1,2-diamine]
IC50 (P. falciparum D6; [3]): 0.0416 µg/mL (≈ 0.0937 µM) | IC50 (P. falciparum C235; [3]): 0.0367 µg/mL (≈ 0.0828 µM) | IC50 (P. falciparum W2; [3]): 0.0294 µg/mL (≈ 0.0663 µM) | hERG ([1]; hERG activity as % inhibition): 95%

CC(C)(C)c1ccc(cc1)c2nc(Nc3ccncc3)nc(n2)C(Cl)(Cl)Cl [Compound 739]
D6 (P. falciparum D6; SYBR Green Assay): 23 ng/mL | C235 (P. falciparum C235; SYBR Green Assay): 25 ng/mL | W2 (P. falciparum W2; SYBR Green Assay): 24 ng/mL | hERG ([1]; hERG activity as % inhibition): 26%

CC(CN(C)C)Nc1nc(Nc2cc(Cl)cc(Cl)c2)nc(n1)C(Cl)(Cl)Cl [Compound 639]
D6 (SYBR Green Assay IC50) (P. falciparum D6): 0.013 µg/mL | C235 (SYBR Green Assay IC50) (P. falciparum C235): 0.009 µg/mL | W2 (SYBR Green Assay IC50) (P. falciparum W2): 0.007 µg/mL | hERG (% inhibition) [1]: 25%

CC(CN(C)C)Nc1nc(Nc2ccc(Cl)c(Cl)c2)nc(n1)C(Cl)(Cl)Cl [Compound 640]
D6 (SYBR Green Assay IC50) (P. falciparum D6): 0.008 µg/mL | C235 (SYBR Green Assay IC50) (P. falciparum C235): 0.01 µg/mL | W2 (SYBR Green Assay IC50) (P. falciparum W2): 0.008 µg/mL | hERG (% inhibition) [1]: 23%

CCN1CCC(CC1)C(C)Nc2nc(Nc3cc(Cl)cc(Cl)c3)nc(n2)C(Cl)(Cl)Cl [Compound 645]
D6 (SYBR Green Assay IC50) (P. falciparum D6): 0.07911 µg/mL | C235 (SYBR Green Assay IC50) (P. falciparum C235): 0.05886 µg/mL | W2 (SYBR Green Assay IC50) (P. falciparum W2): 0.0375 µg/mL | hERG (% inhibition) [1]: 75%

CCN(CC)CC(C)Nc1nc(Nc2cc(Cl)cc(Cl)c2)nc(n1)C(Cl)(Cl)Cl [Compound 644]
D6 (SYBR Green Assay IC50) (P. falciparum D6): 0.131 µg/mL | C235 (SYBR Green Assay IC50) (P. falciparum C235): 0.014 µg/mL | W2 (SYBR Green Assay IC50) (P. falciparum W2): 0.009 µg/mL | hERG (% inhibition) [1]: 100%

CCN(CC)CC(C)Nc1nc(Nc2ccc(Cl)c(Cl)c2)nc(n1)C(Cl)(Cl)Cl [Compound 642]
D6 (SYBR Green Assay IC50) (P. falciparum D6): 0.005 µg/mL | C235 (SYBR Green Assay IC50) (P. falciparum C235): 0.013 µg/mL | W2 (SYBR Green Assay IC50) (P. falciparum W2): 0.003 µg/mL | hERG (% inhibition) [1]: 76%

CN1CCN(CC1)c2ccc(Nc3nc(NCCN4CCCC4)nc(n3)C(Cl)(Cl)Cl)cc2 [Compound 733]
D6 (P. falciparum D6; SYBR Green Assay): 117 ng/mL | C235 (P. falciparum C235; SYBR Green Assay): 87 ng/mL | W2 (P. falciparum W2; SYBR Green Assay): 36 ng/mL | hERG ([1]; hERG activity as % inhibition): 55%

CN(C)CCCNc1nc(Nc2ccc(Cl)c(Cl)c2)nc(n1)C(Cl)(Cl)Cl [Compound 637]
D6 (SYBR Green Assay IC50) (P. falciparum D6): 0.017 µg/mL | C235 (SYBR Green Assay IC50) (P. falciparum C235): 0.02 µg/mL | W2 (SYBR Green Assay IC50) (P. falciparum W2): 0.013 µg/mL | hERG (% inhibition) [1]: 103%

COc1ccc(cc1)c2nc(nc(n2)C(Cl)(Cl)Cl)N3CC4CC3CN4 [Compound 718]
D6 (P. falciparum D6; SYBR Green Assay): 278.6 ng/mL | C235 (P. falciparum C235; SYBR Green Assay): 139.2 ng/mL | W2 (P. falciparum W2; SYBR Green Assay): 77.35 ng/mL | hERG ([1]; hERG activity as % inhibition): 23.5%

Cc1cc(CNc2nc(nc(n2)C(Cl)(Cl)Cl)c3ccc(Cl)c(Cl)c3)n(C)n1 [Compound 708]
D6 (P. falciparum D6; SYBR Green Assay): 319.7 ng/mL | C235 (P. falciparum C235; SYBR Green Assay): 221 ng/mL | W2 (P. falciparum W2; SYBR Green Assay): 75.2 ng/mL | hERG ([1]; hERG activity as % inhibition): 12.2%

ClC(C1═NC(NCCO)═NC(C2═CC(C(F)(F)F)═CC═C2)═N1)(Cl)Cl [Compound 647]
D6 (SYBR Green Assay IC50) (P. falciparum D6): 0.035 µg/mL | C235 (SYBR Green Assay IC50) (P. falciparum C235): 0.039 µg/mL | W2 (SYBR Green Assay IC50) (P. falciparum W2): 0.023 µg/mL | hERG (% inhibition) [1]: 100%

ClC(Cl)(Cl)c1nc(nc(n1)c2ccccc2)N3CC4CC3CN4 [Compound 720]
D6 (P. falciparum D6; SYBR Green Assay): 56 ng/mL | C235 (P. falciparum C235; SYBR Green Assay): 89 ng/mL | W2 (P. falciparum W2; SYBR Green Assay): 35 ng/mL | hERG ([1]; hERG activity as % inhibition): 84%

NC1(CNC2═NC(═NC(═N2)C2═CC═C(C═C2)C(Cl)(Cl)Cl)C(Cl)(Cl)Cl)CCCCC1 [Compound 666]
D6 (P. falciparum D6; SYBR Green Assay): 3 ng/mL | C235 (P. falciparum C235; SYBR Green Assay): 5 ng/mL | In vivo Results Thompson Assay (n/N Cures or Suppressive) (P. berghei; (80 × 3): 80 mg/kg for 3 days): (80 × 3) 2/4 Cures | W2 (P. falciparum W2; SYBR Green Assay): 2 ng/mL

tert-butyl 5-(4-(4-chlorophenyl)-6-(trichloromethyl)-1,3,5-triazin-2-yl)-2,5-diazabicyclo[2.2.1]heptane-2-carboxylate [Example 6]
D6 (P. falciparum D6; SYBR Green Assay): 33 ng/mL | C235 (P. falciparum C235; SYBR Green Assay): 44 ng/mL | W2 (P. falciparum W2; SYBR Green Assay): 26 ng/mL | hERG [1, 2]: 96%
